Results as given in patent publication US6737383B1, “Herbicidal oxadiazolidines” (priority 1999, dated 2004).

What was measured:
bedstraw = test: Test B pre/postemergence bedstraw; type: in vivo, Galium aparine
Outline: (§1)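 Herbicidal effect was estimated by eye on a ten-point control scale after plants spent twelve to sixteen days in a greenhouse following soil or foliar treatment. Foliar sprays targeted plants at one to four leaves; all doses were formulated in a non-phytotoxic solvent with surfactant.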

blackgrass = test: Test B pre/postemergence blackgrass; type: in vivo, Alopecurus myosuroides
Outline: as §1

surinam grass = test: Test B pre/postemergence surinam grass; type: in vivo, Brachiaria decumbens
Outline: as §1

cocklebur = test: Test B pre/postemergence cocklebur; type: in vivo, Xanthium strumarium
Outline: as §1

corn = test: Test B pre/postemergence corn; type: in vivo, Zea mays
Outline: as §1

morningglory = test: Test B pre/postemergence morningglory; type: in vivo, Ipomoea hederacea
Outline: as §1

pigweed = test: Test B pre/postemergence pigweed; type: in vivo, Amaranthus retroflexus
Outline: as §1

rape = test: Test B pre/postemergence rape; type: in vivo, Brassica napus
Outline: as §1

velvetleaf = test: Test B pre/postemergence velvetleaf; type: in vivo, Abutilon theophrasti; conditions: for Plant response rating, Velvetleaf: Rate 250 g/ha
Outline: as §1

wheat = test: Test B pre/postemergence wheat; type: in vivo, Triticum aestivum; conditions: for Plant response rating, Wheat: Rate 250 g/ha
Outline: as §1

wild oat = test: Test B pre/postemergence wild oat; type: in vivo, Avena fatua; conditions: for Plant response rating, Wild oats: Rate 250 g/ha
Outline: as §1

purple nutsedge = test: Test B pre/postemergence purple nutsedge; type: in vivo, Cyperus rotundus
Outline: as §1

rice = test: Test B flood test rice; type: in vivo, Oryza sativa
Outline: (§2)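 Each value is a visual injury score relative to controls, with 10 meaning complete control and 0 no effect. Evaluation took place twelve to sixteen days after the 2-leaf-stage plants were treated and kept in the greenhouse.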

smallflower flatsedge = test: Test B flood test smallflower flatsedge; type: in vivo, Cyperus difformis
Outline: as §2

duck salad = test: Test B flood test duck salad; type: in vivo, Heteranthera limosa
Outline: as §2

bamyardgrass = test: Test B flood test barnyardgrass; type: in vivo, Echinochloa crus-galli
Outline: as §2

[1] = Postemergence, Rate 62 g/ha, scale 0 to 10, 0 is no effect, 10 is complete control
[2] = Postemergence, Rate 250 g/ha, scale 0 to 10, 0 no effect, 10 complete control
[3] = Preemergence, Rate 62 g/ha, scale 0 to 10 (0 no effect, 10 complete control)
[4] = Preemergence, Rate 125 g/ha, scale 0 to 10 (0 no effect, 10 complete control)
[5] = Preemergence, Rate 250 g/ha, scale of 0 to 10 where 0 is no effect and 10 is complete control
[6] = Preemergence, Rate 500 g/ha, scale 0 to 10 (0 no effect, 10 complete control)
[7] = Rate 125 g/ha, Postemergence, scale 0 to 10, 0 no effect, 10 complete control
[8] = Postemergence, Rate 125 g/ha, scale of 0 to 10 where 0 is no effect and 10 is complete control
[9] = Rate 62 g/ha, Postemergence, scale of 0 to 10 where 0 is no effect and 10 is complete control
[10] = Rate 500 g/ha, Postemergence, scale 0 to 10, 0 no effect, 10 complete control
[11] = Preemergence, Rate 125 g/ha, 0 is no effect, 10 is complete control
[12] = Preemergence, scale of 0 to 10 where 0 is no effect and 10 is complete control
[13] = Postemergence, scale 0 to 10, 0 is no effect, 10 is complete control
[14] = Postemergence (flood test species), Rate 125 g/ha, scale of 0 to 10 where 0 is no effect and 10 is complete control
[15] = Rate 62 g/ha, Postemergence section, flood test species, scale of 0 to 10 where 0 is no effect and 10 is complete control
[16] = Rate 250 g/ha, Postemergence (flood test), scale 0 to 10, 0 is no effect, 10 is complete control
[17] = Rate 250 g/ha, headed Pre-emergence (flood test species), scale 0 to 10 (0 no effect, 10 complete control)
[18] = Rate 500 g/ha, headed Pre-emergence (flood test species), scale 0 to 10 (0 no effect, 10 complete control)
[19] = Rate 500 g/ha, listed under Postemergence (flood test species), scale 0 to 10, 0 no effect, 10 complete control
[20] = Rate 1000 g/ha, Pre-emergence (as headed), scale 0 to 10
[21] = Rate 2000 g/ha, Pre-emergence (as headed), scale 0 to 10
[22] = flood test, listed under Postemergence, Rate 250 g/ha, scale 0 to 10, 0 no effect, 10 complete control

For `CC(C)N(C(=O)n1oc(=O)n(C(C)C)c1=O)c1ccccc1` [Compound 113], the “Bedstraw plant response rating” value (bedstraw; [1]) was 1, the “Bedstraw plant response rating” value (bedstraw; [2]) was 7 and the “Bedstraw plant response rating” value (bedstraw; [3]) was 4. The “Plant response rating, Bedstraw” value (bedstraw; [4]) was 6, the “Plant response rating, Bedstraw” value (bedstraw; [5]) was 7 and the “Bedstraw plant response rating” value (bedstraw; [6]) was 8. The “Bedstraw plant response rating” value (bedstraw; [7]) was 4, the “Blackgrass plant response rating” value (blackgrass; [8]) was 8 and the “Blackgrass plant response rating” value (blackgrass; [2]) was 8. For the same compound, the “Blackgrass plant response rating” value (blackgrass; [3]) was 8, the “Plant response rating, Blackgrass” value (blackgrass; [4]) was 9 and the “Plant response rating, Blackgrass” value (blackgrass; [5]) was 10. The “Blackgrass plant response rating” value (blackgrass; [6]) was 10, the “Blackgrass plant response rating” value (blackgrass; [9]) was 8 and the “Blackgrass plant response rating” value (blackgrass; [10]) was 8. The “B. signalgrass plant response rating” value (surinam grass; [1]) was 4, the “B. signalgrass plant response rating” value (surinam grass; [2]) was 8 and the “B. signalgrass plant response rating” value (surinam grass; [3]) was 7. For the same compound, the “Plant response rating, B. signalgrass” value (surinam grass; [4]) was 9, the “Plant response rating, B. signalgrass” value (surinam grass; [5]) was 10 and the “B. signalgrass plant response rating” value (surinam grass; [6]) was 10. The “B. signalgrass plant response rating” value (surinam grass; [7]) was 7, the “B. signalgrass plant response rating” value (surinam grass; Rate 500 g/ha, Postemergence, scale of 0 to 10 where 0 is no effect and 10 is complete control) was 8 and the “Cocklebur plant response rating” value (cocklebur; [8]) was 1. For the same compound, the “Cocklebur plant response rating” value (cocklebur; [2]) was 1, the “Cocklebur plant response rating” value (cocklebur; [3]) was 0 and the “Plant response rating, Cocklebur” value (cocklebur; [4]) was 1. The “Plant response rating, Cocklebur” value (cocklebur; [5]) was 3, the “Cocklebur plant response rating” value (cocklebur; [6]) was 3 and the “Cocklebur plant response rating” value (cocklebur; [9]) was 1. The “Cocklebur plant response rating” value (cocklebur; [10]) was 4, the “Corn plant response rating” value (corn; [8]) was 1 and the “Corn plant response rating” value (corn; [2]) was 5. For the same compound, the “Corn plant response rating” value (corn; [3]) was 3, the “Plant response rating, Corn” value (corn; [4]) was 4 and the “Plant response rating, Corn” value (corn; [5]) was 8. For the same compound, the “Corn plant response rating” value (corn; [6]) was 10, the “Corn plant response rating” value (corn; [9]) was 0 and the “Corn plant response rating” value (corn; [10]) was 6. The “Morningglory plant response rating” value (morningglory; [8]) was 5, the “Morningglory plant response rating” value (morningglory; [2]) was 8 and the “Morningglory plant response rating” value (morningglory; [3]) was 1. The “Plant response rating, Morningglory” value (morningglory; [4]) was 2, the “Plant response rating, Morningglory” value (morningglory; [5]) was 7 and the “Morningglory plant response rating” value (morningglory; [6]) was 8. The “Morningglory plant response rating” value (morningglory; [9]) was 5, the “Morningglory plant response rating” value (morningglory; [10]) was 10 and the “Redroot pigweed plant response rating” value (pigweed; [8]) was 4. For the same compound, the “Redroot pigweed plant response rating” value (pigweed; [3]) was 8, the “Plant response rating, Redroot pigweed” value (pigweed; [4]) was 8 and the “Plant response rating, Redroot pigweed” value (pigweed; [5]) was 10. For the same compound, the “Redroot pigweed plant response rating” value (pigweed; [6]) was 10, the “Redroot pigweed plant response rating” value (pigweed; [9]) was 3 and the “Plant response rating, Redroot pigweed” value (pigweed; Rate 250 g/ha, Postemergence, scale 0 to 10, 0 is no effect, 10 is complete control) was 6. For the same compound, the “Redroot pigweed plant response rating” value (pigweed; [10]) was 7, the “Rape plant response rating” value (rape; [8]) was 3 and the “Rape plant response rating” value (rape; [2]) was 7. The “Rape plant response rating” value (rape; [3]) was 4, the “Plant response rating, Rape” value (rape; [4]) was 7 and the “Plant response rating, Rape” value (rape; [5]) was 10. For the same compound, the “Rape plant response rating” value (rape; [6]) was 10, the “Rape plant response rating” value (rape; [9]) was 0 and the “Rape plant response rating” value (rape; [10]) was 7. For the same compound, the “Velvetleaf plant response rating” value (velvetleaf; [8]) was 1, the “Velvetleaf plant response rating” value (velvetleaf; [3]) was 6 and the “Velvetleaf plant response rating (0 to 10 scale)” value (velvetleaf; [11]) was 7. For the same compound, the “Plant response rating, Velvetleaf” value (velvetleaf; [12]) was 8, the “Velvetleaf plant response rating” value (velvetleaf; [6]) was 8 and the “Velvetleaf plant response rating” value (velvetleaf; [9]) was 0. The “Plant response rating, Velvetleaf” value (velvetleaf; [13]) was 7, the “Velvetleaf plant response rating” value (velvetleaf; [10]) was 8 and the “Wheat plant response rating” value (wheat; [8]) was 3. The “Wheat plant response rating” value (wheat; [3]) was 2, the “Wheat plant response rating (0 to 10 scale)” value (wheat; [11]) was 4 and the “Plant response rating, Wheat” value (wheat; [12]) was 7. The “Wheat plant response rating” value (wheat; [6]) was 8, the “Wheat plant response rating” value (wheat; [9]) was 1 and the “Plant response rating, Wheat” value (wheat; [13]) was 4. For the same compound, the “Wheat plant response rating” value (wheat; [10]) was 6, the “Wild oats plant response rating” value (wild oat; [8]) was 2 and the “Wild oats plant response rating” value (wild oat; [3]) was 6. The “Wild oats plant response rating (0 to 10 scale)” value (wild oat; [11]) was 10, the “Plant response rating, Wild oats” value (wild oat; [12]) was 10 and the “Wild oats plant response rating” value (wild oat; [6]) was 10. The “Wild oats plant response rating” value (wild oat; [9]) was 1, the “Plant response rating, Wild oats” value (wild oat; [13]) was 6 and the “Wild oats plant response rating” value (wild oat; [10]) was 6. The “Nutsedge plant response rating” value (purple nutsedge; [8]) was 0, the “Nutsedge plant response rating” value (purple nutsedge; [2]) was 0 and the “Nutsedge plant response rating” value (purple nutsedge; [3]) was 0. For the same compound, the “Plant response rating, Nutsedge” value (purple nutsedge; [4]) was 0, the “Plant response rating, Nutsedge” value (purple nutsedge; [5]) was 0 and the “Nutsedge plant response rating” value (purple nutsedge; [6]) was 0. The “Nutsedge plant response rating” value (purple nutsedge; [9]) was 0, the “Nutsedge plant response rating” value (purple nutsedge; [10]) was 2 and the “Rice plant response rating” value (rice; [14]) was 0. The “Rice plant response rating” value (rice; [15]) was 0, the “Plant response rating, Rice” value (rice; [16]) was 0 and the “Rice plant response rating” value (rice; [17]) was 0. For the same compound, the “Plant response rating, Rice” value (rice; [18]) was 0, the “Rice plant response rating” value (rice; [19]) was 0 and the “Rice plant response rating” value (rice; [20]) was 0. For the same compound, the “Rice plant response rating” value (rice; [21]) was 7, the “S. Flatsedge plant response rating” value (smallflower flatsedge; [14]) was 0 and the “S. Flatsedge plant response rating” value (smallflower flatsedge; Pre-emergence, Rate 1000 g/ha, scale 0 to 10 (0 no effect, 10 complete control)) was 0. The “S. Flatsedge plant response rating” value (smallflower flatsedge; [15]) was 0, the “Plant response rating, S. Flatsedge” value (smallflower flatsedge; [16]) was 0 and the “S. Flatsedge plant response rating” value (smallflower flatsedge; [17]) was 0. For the same compound, the “Plant response rating, S. Flatsedge” value (smallflower flatsedge; [18]) was 0, the “S. Flatsedge plant response rating” value (smallflower flatsedge; [19]) was 0 and the “S. Flatsedge plant response rating” value (smallflower flatsedge; [21]) was 9. For the same compound, the “Ducksalad plant response rating” value (duck salad; [14]) was 0, the “Ducksalad plant response rating” value (duck salad; [15]) was 0 and the “Ducksalad plant response rating” value (duck salad; [17]) was 0. The “Plant response rating, Ducksalad” value (duck salad; [18]) was 0, the “Ducksalad plant response rating” value (duck salad; [19]) was 0 and the “Ducksalad plant response rating” value (duck salad; [20]) was 1. The “Ducksalad plant response rating” value (duck salad; [21]) was 8, the “Ducksalad plant response rating” value (duck salad; [22]) was 0 and the “Barnyardgrass plant response rating” value (bamyardgrass; [1]) was 0. For the same compound, the “Barnyardgrass plant response rating” value (bamyardgrass; Rate 125 g/ha, Postemergence section (flood test species), scale 0 to 10, 0 no effect, 10 complete control) was 0, the “Barnyardgrass plant response rating” value (bamyardgrass; [17]) was 0 and the “Plant response rating, Barnyardgrass” value (bamyardgrass; [18]) was 0. The “Barnyardgrass plant response rating” value (bamyardgrass; [19]) was 0, the “Barnyardgrass plant response rating” value (bamyardgrass; [20]) was 0 and the “Barnyardgrass plant response rating” value (bamyardgrass; Rate 2000 g/ha, Pre-emergence (as headed), scale 0 to 10, 0 no effect, 10 complete control) was 9. For the same compound, the “Barnyardgrass plant response rating” value (bamyardgrass; [22]) was 0.
